# Test results reported in PubChem BioAssay AID2060884 (Molecular Pharmacology Branch, DTP, NCI, 2025).
# Several values for one entry are separate records, joined by “and”; a condition that tells them apart may be missing. Identical values can stand only once.
# Tested on: NCI-H929 complex spheroids, viability % test/control
# Experiment: Anticancer human tumor NCI-H929 cell line growth inhibition [RAS];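 further: compound exposure lasted seven days before viability was read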;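 on viability, T/C: 100% = DMSO vehicle control viability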
# Conditions: for viability, T/C: stronger effect = lower value
# How it was run: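 Agents were tested in combination matrices in half-log decrements from a top concentration at or near clinical Cmax (10 microM if undetermined). Targets were multi-cell spheroids of tumour lines plus HUVEC and MSC stromal cells.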
# [1] = curve of first compound, second compound 0.000949 µM
# [2] = curve of first compound, second compound 0.003 µM
# [3] = curve of first compound, second compound 0.00949 µM
# [4] = curve of first compound, second compound 0.03 µM
# [5] = curve of first compound, second compound 0.0949 µM
# [6] = curve of first compound, second compound 0.3 µM
smiles,measurement,setting,value
CCc1c2c(nc3ccc(O)cc13)-c1cc3c(c(=O)n1C2)COC(=O)[C@]3(O)CC + CCn1c(-c2cccnc2C(C)OC)c2c3cc(ccc31)N1CCOC(CC(NC(=O)C(C(C)C)N(C)C(=O)C3(F)CCN(C(=O)C#CC(C)(C)N(C)C)CC3)C(=O)N3CCCC(N3)C(=O)OCC(C)(C)C2)C1,IC50,[1],1.38 nM
same,IC50,[2],1.45 nM
same,IC50,[3],1.34 nM
same,IC50,[4],1.4 nM
same,IC50,[5],1.22 nM
same,IC50,[6],< 0.949 nM
same,"viability, T/C","second compound 0.000949 µM, first compound 0.000949 µM",72.7%
same,"viability, T/C","second compound 0.000949 µM, first compound 0.003 µM",2.65%
same,"viability, T/C","second compound 0.000949 µM, first compound 0.00949 µM",1.03%
same,"viability, T/C","second compound 0.000949 µM, first compound 0.03 µM",1.2%
same,"viability, T/C","second compound 0.000949 µM, first compound 0.0949 µM",1.15%
same,"viability, T/C","second compound 0.000949 µM, first compound 0.3 µM",0.54%
same,"viability, T/C","second compound 0.003 µM, first compound 0.000949 µM",77%
same,"viability, T/C","second compound 0.003 µM, first compound 0.003 µM",3.29%
same,"viability, T/C","second compound 0.003 µM, first compound 0.00949 µM",1.02%
same,"viability, T/C","second compound 0.003 µM, first compound 0.03 µM",1.1%
same,"viability, T/C","second compound 0.003 µM, first compound 0.0949 µM",1.07%
same,"viability, T/C","second compound 0.003 µM, first compound 0.3 µM",0.54%
same,"viability, T/C","second compound 0.00949 µM, first compound 0.000949 µM",70.4%
same,"viability, T/C","second compound 0.00949 µM, first compound 0.003 µM",2.82%
same,"viability, T/C","second compound 0.00949 µM, first compound 0.00949 µM",0.87%
same,"viability, T/C","second compound 0.00949 µM, first compound 0.03 µM",1.06%
same,"viability, T/C","second compound 0.00949 µM, first compound 0.0949 µM",1.05%
same,"viability, T/C","second compound 0.00949 µM, first compound 0.3 µM",0.47%
same,"viability, T/C","second compound 0.03 µM, first compound 0.000949 µM",74.8%
same,"viability, T/C","second compound 0.03 µM, first compound 0.003 µM",1.48%
same,"viability, T/C","second compound 0.03 µM, first compound 0.00949 µM",0.74%
same,"viability, T/C","second compound 0.03 µM, first compound 0.03 µM",0.96%
same,"viability, T/C","second compound 0.03 µM, first compound 0.0949 µM",0.84%
same,"viability, T/C","second compound 0.03 µM, first compound 0.3 µM",0.42%
same,"viability, T/C","second compound 0.0949 µM, first compound 0.000949 µM",63.8%
same,"viability, T/C","second compound 0.0949 µM, first compound 0.003 µM",1.38%
same,"viability, T/C","second compound 0.0949 µM, first compound 0.00949 µM",0.98%
same,"viability, T/C","second compound 0.0949 µM, first compound 0.03 µM",0.71%
same,"viability, T/C","second compound 0.0949 µM, first compound 0.0949 µM",0.87%
same,"viability, T/C","second compound 0.0949 µM, first compound 0.3 µM",0.47%
same,"viability, T/C","second compound 0.3 µM, first compound 0.000949 µM",48.2%
same,"viability, T/C","second compound 0.3 µM, first compound 0.003 µM",1.54%
same,"viability, T/C","second compound 0.3 µM, first compound 0.00949 µM",0.75%
same,"viability, T/C","second compound 0.3 µM, first compound 0.03 µM",0.83%
same,"viability, T/C","second compound 0.3 µM, first compound 0.0949 µM",0.84%
same,"viability, T/C","second compound 0.3 µM, first compound 0.3 µM",0.44%
C[C@@H](NC(=O)c1ncnc(N)c1Cl)c1ncc(C(=O)Nc2cc(C(F)(F)F)c(Cl)cn2)s1 + CCn1c(-c2cccnc2C(C)OC)c2c3cc(ccc31)N1CCOC(CC(NC(=O)C(C(C)C)N(C)C(=O)C3(F)CCN(C(=O)C#CC(C)(C)N(C)C)CC3)C(=O)N3CCCC(N3)C(=O)OCC(C)(C)C2)C1,IC50,[1],> 10000 nM
same,IC50,[2],> 10000 nM
same,IC50,[3],> 10000 nM
same,IC50,[4],> 10000 nM
same,IC50,[5],> 10000 nM
same,IC50,[6],> 10000 nM
same,"viability, T/C","second compound 0.000949 µM, first compound 0.0316 µM",109%
same,"viability, T/C","second compound 0.000949 µM, first compound 0.1 µM",101%
same,"viability, T/C","second compound 0.000949 µM, first compound 0.316 µM",105%
same,"viability, T/C","second compound 0.000949 µM, first compound 1 µM",94.4%
same,"viability, T/C","second compound 0.000949 µM, first compound 3.16 µM",98.9%
same,"viability, T/C","second compound 0.000949 µM, first compound 10 µM",103%
same,"viability, T/C","second compound 0.003 µM, first compound 0.0316 µM",103%
same,"viability, T/C","second compound 0.003 µM, first compound 0.1 µM",107%
same,"viability, T/C","second compound 0.003 µM, first compound 0.316 µM",99.3%
same,"viability, T/C","second compound 0.003 µM, first compound 1 µM",93.1%
same,"viability, T/C","second compound 0.003 µM, first compound 3.16 µM",100%
same,"viability, T/C","second compound 0.003 µM, first compound 10 µM",104%
same,"viability, T/C","second compound 0.00949 µM, first compound 0.0316 µM",99.7%
same,"viability, T/C","second compound 0.00949 µM, first compound 0.1 µM",102%
same,"viability, T/C","second compound 0.00949 µM, first compound 0.316 µM",102%
same,"viability, T/C","second compound 0.00949 µM, first compound 1 µM",92.3%
same,"viability, T/C","second compound 0.00949 µM, first compound 3.16 µM",102%
same,"viability, T/C","second compound 0.00949 µM, first compound 10 µM",104%
same,"viability, T/C","second compound 0.03 µM, first compound 0.0316 µM",98.8%
same,"viability, T/C","second compound 0.03 µM, first compound 0.1 µM",105%
same,"viability, T/C","second compound 0.03 µM, first compound 0.316 µM",99.1%
same,"viability, T/C","second compound 0.03 µM, first compound 1 µM",92.6%
same,"viability, T/C","second compound 0.03 µM, first compound 3.16 µM",101%
same,"viability, T/C","second compound 0.03 µM, first compound 10 µM",104%
same,"viability, T/C","second compound 0.0949 µM, first compound 0.0316 µM",104%
same,"viability, T/C","second compound 0.0949 µM, first compound 0.1 µM",101%
same,"viability, T/C","second compound 0.0949 µM, first compound 0.316 µM",94.8%
same,"viability, T/C","second compound 0.0949 µM, first compound 1 µM",92.3%
same,"viability, T/C","second compound 0.0949 µM, first compound 3.16 µM",96.2%
same,"viability, T/C","second compound 0.0949 µM, first compound 10 µM",105%
same,"viability, T/C","second compound 0.3 µM, first compound 0.0316 µM",106%
same,"viability, T/C","second compound 0.3 µM, first compound 0.1 µM",105%
same,"viability, T/C","second compound 0.3 µM, first compound 0.316 µM",102%
same,"viability, T/C","second compound 0.3 µM, first compound 1 µM",87.4%
same,"viability, T/C","second compound 0.3 µM, first compound 3.16 µM",92.5%
same,"viability, T/C","second compound 0.3 µM, first compound 10 µM",107%
CCN1CCN(Cc2ccc(Nc3ncc(F)c(-c4cc(F)c5nc(C)n(C(C)C)c5c4)n3)nc2)CC1,"viability, T/C",compound 0.00316 µM,106% [middle of 4 runs]
same,"viability, T/C",compound 0.01 µM,101% (2×) and 100% and 102%
same,"viability, T/C",compound 0.0316 µM,108% [middle of 4 runs]
same,"viability, T/C",compound 0.1 µM,107% (2×) and 98.7% and 108%
same,"viability, T/C",compound 0.316 µM,117% (2×) and 102% and 115%
same,IC50,curve of compound,> 1000 nM and 774 nM and 695 nM
